This is an account of results in patent publication US20220227796A1, “EGFR INHIBITORS, COMPOSITIONS AND METHODS THERE OF” (Betta Pharmaceuticals Co., Ltd., priority 2019, published 2022).

Counter-ions that a name gives are not always drawn. Some results are limits rather than exact numbers.

One assay relates to HCC827(Δ19del). The assay can be described thus: HCC827 cells proliferation assay. Format: cell-based. The following applies: Homo sapiens, HCC827; cell proliferation, 72 h, CellTiter Glo; class symbols; read-out: HCC827 IC50. As to the method: (§1) Test 3 H1975 and HCC827 Cells Proliferation Assay
(§2) a) The medium was preheated in a 37° C. water bath in advance.
(§3) b) Remove the cryogenic vials from the liquid nitrogen tank, quickly put it into a 37° C. water bath, and completely melt it in 1 min.
(§4) c) Transfer the cell suspension to a 15 mL centrifuge tube containing 8 mL medium, centrifuge 1000 rpm, 5 min.
(§5) d) Discard the supernatant, resuspend the cells in 1 mL medium, and transfer to a 75 cm^2 flask containing 15 mL medium, culture the cells in an incubator at 37° C., 5% CO2.
(§6) b) Collect cell to a 15 mL centrifuged tube, centrifuge at 1000 rpm for 5 min. Discard the supernatant, count, and make the cell density at 1×10^4 cells/mL, then place it in a 37° C., 5% CO2 incubator.
(§7) b) The above compound solution was diluted 1:20 times with culture medium to prepare a 10 fold working solution;
(§8) a) Take cells in log phase growth, centrifuge at 1000 rpm for 5 min, then resuspend the cells with culture medium, then count cells;
(§9) b) Cells were seeded to 96-well cell culture plate with density at 2000 cells/well (suitable for H1975 cell) and at 2500 cells/well (suitable for HCC827 cell);
(§10) The blank control well was a culture medium (0.5% DMSO);
(§11) b) The cells were incubated for an additional 72 h in the incubator.
(§12) a) Remove the 96-well cell culture plate and add 50 μl of CTG reagent (CellTiter Glo kit, promega, Cat #G7573).
(§13) b) Plate was shaked for 2 min and then let it cool for 10 min at room temperature.
(§14) c) The Luminescence signal value was read using a PerkinElmer reader.
(§15) Experimental Data Analysis
(§16) Data were analyzed using GraphPad Prism 6.0 software to obtain a fitted curve of compound activity.
(§17) Y=Bottom+(Top−Bottom)/(1+10^((Log IC50−X)*HillSlope));
(§18) The cells proliferation assay results are expressed with IC50, shown as Table 2.
A general note: In ATP-based viability assays light output follows the ATP content of the culture.

The target in the next assay is EGFR L858R (Homo sapiens, UniProt P00533, L858R). The assay can be described thus: Kinase assay (mobility shift) for EGFR L858R. In kind it is biochemical. As to the method:
(§19) Enzyme reaction protocol are as followed:
(§20) 1. Preparing 1* Kinase buffer as followed.
(§21) 2. Preparing Compound Concentration Gradient: Compounds were tested at a concentration of 300 nM, diluted to 100-fold final concentration in 100% DMSO solution in 96-well plates, and compounds were diluted 3 times with Precision, 10 concentrations. Each concentration of the compound was then further diluted to a 5-fold final concentration of the intermediate dilution solution using 1* Kinase buffer.
(§22) 3. 5 μL of each of the prepared intermediate dilution compounds was separately added to the compound wells of the 384-well plate, and each concentration was tested for duplicate wells; 5 μL of 5% DMSO was added to the negative control wells and the positive control wells, respectively.
(§23) 4. 2.5-fold final concentration of the kinase solution was prepared using 1*Kinase buffer.
(§24) 6. Centrifuge at 1000 rpm for 30 seconds, shake the reaction plate and incubate for 10 minutes at room temperature.
(§25) 8. 10 μL of a 2.5-fold final concentration of a mixed solution of ATP and a substrate was added to initiate the reaction.
(§26) 9. Centrifuge the 384-well plate at 1000 rpm for 30 seconds, mix by shaking, and incubate at room temperature for the corresponding time.
(§27) 10. Add 30 μL of the stop solution to stop the kinase reaction, centrifuge at 1000 rpm for 30 seconds, and mix by shaking.
(§28) 11. Read the conversion rate with Caliper EZ Reader.
(§29) Convert conversion values to inhibition values:
(§30) Percent inhibition=(max−conversion % sample)/(max−min)*100.
(§31) “max” stands for the mean value of the positive control well ratio; “min” stands for the mean value of the negative control well; conversion % sample: sample conversion reading.
(§32) Fit the data in log(inhibitor) vs. response Variable slope of GraphPad Prism 5 to obtain IC50 values.
(§33) Equation used is: Y=Bottom+(Top−Bottom)/(1+(IC50/X)*HillSlope)

In the next assay the target is EGFR Δ19del/T790M/C797S (Homo sapiens, UniProt P00533, T790M/C797S, form not given). Kind of assay: Kinase assay (mobility shift) for EGFR Δ19del/T790M/C797S. In kind it is biochemical. The following applies: read-out: EGFR Δ 19del/T790M/C797S IC50. As to the method:
as §19, §20, §21, §22, §23, §24, §25, §26, §27, §28, §29, §30, §31, §32, §33

In the next assay the target is EGFR T790M/L858R (Homo sapiens, UniProt P00533, L858R/T790M). The assay can be described thus: Kinase assay (mobility shift) for EGFR T790M/L858R. Format: biochemical. How it is done:
as §19, §20, §21, §22, §23, §24, §25, §26, §27, §28, §29, §30, §31, §32, §33

A further assay concerns H1975(L858R/T790M). The assay can be described thus: H1975 cells proliferation assay. Conditions: Homo sapiens, NCI-H1975; cell proliferation, 72 h, CellTiter Glo; class symbols; read-out: H1975 IC50. In kind it is cell-based. As to the method:
as §1, §2, §3, §4, §5, §6, §7, §8, §9, §10, §11, §12, §13, §14, §15, §16, §17, §18

In another assay the target is Ba/F3-Δ19del/T790M/C797S (Homo sapiens, UniProt P00533, T790M/C797S, cells depend on it, form not given). Kind of assay: Ba/F3-Δ19del/T790M/C797S cells proliferation assay. Conditions: cell proliferation, 72 h, CellTiter Glo; class symbols; read-out: BaF3 Δ 19del/T790M/C797S IC50. Format: cell-based. As to the method: a) The medium was preheated in a 37 water bath in advance.
as §3
c) Transfer the cell suspension to a 15 mL centrifuge tube containing 8 mL medium, centrifuge 1000 rpm, 5 min,
as §5
a) The medium was preheated in a 37° C.; water bath in advance.
as §6, §7, §8
b) Cells were seeded to 96-well cell culture plate with density at 2000 cells/well;
as §10, §11, §12, §13, §14, §15, §16
Y=Bottom+(Top−Bottom)/(1+10^((Log IC50−X)*Hill Slope));
as §18

Sequence of EGFR L858R (P00533 25-1210 L858R): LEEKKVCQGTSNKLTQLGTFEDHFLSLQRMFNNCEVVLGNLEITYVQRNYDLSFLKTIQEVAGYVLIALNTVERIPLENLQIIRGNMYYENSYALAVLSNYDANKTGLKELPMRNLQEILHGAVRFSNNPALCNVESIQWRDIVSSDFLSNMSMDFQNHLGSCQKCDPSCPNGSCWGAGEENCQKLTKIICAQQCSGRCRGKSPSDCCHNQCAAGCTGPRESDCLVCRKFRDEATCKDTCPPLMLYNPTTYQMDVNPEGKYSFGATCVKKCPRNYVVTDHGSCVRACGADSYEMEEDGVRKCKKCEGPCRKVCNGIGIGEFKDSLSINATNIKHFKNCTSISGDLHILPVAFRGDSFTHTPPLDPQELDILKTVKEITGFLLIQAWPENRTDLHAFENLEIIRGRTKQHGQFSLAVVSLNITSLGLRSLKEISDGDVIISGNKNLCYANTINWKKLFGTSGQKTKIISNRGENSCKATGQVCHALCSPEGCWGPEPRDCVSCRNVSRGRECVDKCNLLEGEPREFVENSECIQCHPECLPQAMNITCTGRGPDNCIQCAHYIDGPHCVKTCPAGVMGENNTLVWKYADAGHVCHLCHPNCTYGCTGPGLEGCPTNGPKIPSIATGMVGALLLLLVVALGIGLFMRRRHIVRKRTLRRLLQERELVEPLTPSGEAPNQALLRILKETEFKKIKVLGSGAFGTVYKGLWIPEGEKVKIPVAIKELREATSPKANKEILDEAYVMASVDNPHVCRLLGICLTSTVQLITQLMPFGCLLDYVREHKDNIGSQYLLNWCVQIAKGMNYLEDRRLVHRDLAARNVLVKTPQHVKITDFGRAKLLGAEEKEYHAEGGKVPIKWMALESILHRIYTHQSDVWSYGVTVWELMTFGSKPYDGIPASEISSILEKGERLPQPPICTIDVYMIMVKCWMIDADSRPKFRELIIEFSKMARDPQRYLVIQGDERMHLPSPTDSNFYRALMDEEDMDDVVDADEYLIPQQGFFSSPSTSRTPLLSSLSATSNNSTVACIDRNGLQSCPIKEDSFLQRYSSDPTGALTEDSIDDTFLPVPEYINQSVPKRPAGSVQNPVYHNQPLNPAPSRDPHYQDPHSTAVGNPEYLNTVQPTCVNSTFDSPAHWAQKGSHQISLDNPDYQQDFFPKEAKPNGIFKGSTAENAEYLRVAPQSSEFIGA
Sequence of EGFR Δ19del/T790M/C797S (P00533 with tags, fused parts or gaps DEL746-750/T790M/C797S, form open): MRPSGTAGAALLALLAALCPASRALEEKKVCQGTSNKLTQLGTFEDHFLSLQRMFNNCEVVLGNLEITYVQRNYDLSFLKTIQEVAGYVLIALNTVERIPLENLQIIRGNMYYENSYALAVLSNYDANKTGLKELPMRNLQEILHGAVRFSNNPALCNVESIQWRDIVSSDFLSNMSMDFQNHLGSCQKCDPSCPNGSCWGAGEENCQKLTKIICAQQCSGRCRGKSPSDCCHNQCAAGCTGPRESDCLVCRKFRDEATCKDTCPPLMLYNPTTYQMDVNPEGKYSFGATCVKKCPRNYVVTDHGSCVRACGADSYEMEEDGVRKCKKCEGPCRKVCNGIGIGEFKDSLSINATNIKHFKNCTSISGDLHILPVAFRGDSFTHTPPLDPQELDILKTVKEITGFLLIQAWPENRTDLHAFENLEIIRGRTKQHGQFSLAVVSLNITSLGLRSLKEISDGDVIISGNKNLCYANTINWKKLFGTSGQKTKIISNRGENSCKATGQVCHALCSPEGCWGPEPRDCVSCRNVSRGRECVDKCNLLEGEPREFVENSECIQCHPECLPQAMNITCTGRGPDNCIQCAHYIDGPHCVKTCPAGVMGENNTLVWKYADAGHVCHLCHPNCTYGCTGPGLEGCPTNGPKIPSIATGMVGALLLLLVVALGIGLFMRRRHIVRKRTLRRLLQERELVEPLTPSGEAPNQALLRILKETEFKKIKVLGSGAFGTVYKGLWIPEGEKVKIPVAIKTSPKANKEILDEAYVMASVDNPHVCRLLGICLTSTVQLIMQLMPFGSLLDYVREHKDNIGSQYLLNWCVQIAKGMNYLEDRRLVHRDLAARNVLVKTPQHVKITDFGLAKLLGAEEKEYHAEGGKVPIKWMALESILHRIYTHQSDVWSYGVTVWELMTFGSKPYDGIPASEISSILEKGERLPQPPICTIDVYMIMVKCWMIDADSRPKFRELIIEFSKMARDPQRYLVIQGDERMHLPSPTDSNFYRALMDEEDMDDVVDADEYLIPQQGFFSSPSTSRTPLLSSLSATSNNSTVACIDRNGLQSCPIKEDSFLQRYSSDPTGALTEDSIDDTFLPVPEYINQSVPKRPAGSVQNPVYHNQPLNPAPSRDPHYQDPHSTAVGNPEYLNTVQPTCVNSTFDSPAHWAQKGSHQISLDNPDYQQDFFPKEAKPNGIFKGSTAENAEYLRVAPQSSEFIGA
Sequence of Ba/F3-Δ19del/T790M/C797S (P00533 with tags, fused parts or gaps DEL746-750/T790M/C797S, form open): as above
Sequence of EGFR T790M/L858R (P00533 25-1210 T790M/L858R): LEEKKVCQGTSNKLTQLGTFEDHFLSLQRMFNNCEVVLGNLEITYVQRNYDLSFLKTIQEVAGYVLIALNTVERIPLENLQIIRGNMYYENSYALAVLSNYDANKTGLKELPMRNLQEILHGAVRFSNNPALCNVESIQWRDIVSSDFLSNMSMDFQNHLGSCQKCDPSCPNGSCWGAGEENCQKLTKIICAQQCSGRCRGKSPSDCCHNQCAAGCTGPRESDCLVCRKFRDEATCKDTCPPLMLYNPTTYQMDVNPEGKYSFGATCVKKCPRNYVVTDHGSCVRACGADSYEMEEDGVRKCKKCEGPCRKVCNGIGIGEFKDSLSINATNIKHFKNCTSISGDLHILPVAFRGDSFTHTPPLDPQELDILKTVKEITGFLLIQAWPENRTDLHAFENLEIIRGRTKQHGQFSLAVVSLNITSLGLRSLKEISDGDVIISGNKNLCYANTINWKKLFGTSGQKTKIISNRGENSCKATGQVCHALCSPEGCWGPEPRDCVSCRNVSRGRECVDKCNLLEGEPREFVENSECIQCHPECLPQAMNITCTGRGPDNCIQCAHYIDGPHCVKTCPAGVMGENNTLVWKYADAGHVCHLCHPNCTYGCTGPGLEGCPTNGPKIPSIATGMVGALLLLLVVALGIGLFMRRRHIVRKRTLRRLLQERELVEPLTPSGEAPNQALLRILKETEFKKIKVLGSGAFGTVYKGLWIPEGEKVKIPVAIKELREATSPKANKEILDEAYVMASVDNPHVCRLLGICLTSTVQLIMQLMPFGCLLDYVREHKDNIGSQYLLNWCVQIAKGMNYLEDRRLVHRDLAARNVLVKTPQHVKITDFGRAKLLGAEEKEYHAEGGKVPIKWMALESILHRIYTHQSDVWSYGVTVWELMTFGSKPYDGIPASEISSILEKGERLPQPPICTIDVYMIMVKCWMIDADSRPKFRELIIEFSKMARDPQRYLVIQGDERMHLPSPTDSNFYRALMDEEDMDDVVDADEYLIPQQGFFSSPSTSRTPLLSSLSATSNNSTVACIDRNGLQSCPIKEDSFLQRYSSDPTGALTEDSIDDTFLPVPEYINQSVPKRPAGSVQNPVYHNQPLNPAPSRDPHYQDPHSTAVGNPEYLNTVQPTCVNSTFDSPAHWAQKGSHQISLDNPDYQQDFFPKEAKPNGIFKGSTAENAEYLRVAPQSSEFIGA

For `C=CC(=O)Nc1cc(Nc2ncc(Cl)c(Nc3ccccc3P(C)(C)=O)n2)c(OC)cc1N1CCC2(CC1)CC(N(C)C)C2` [Compound 5, N-(5-((5-chloro-4-((2-(dimethylphosphoryl)phenyl)amino)pyrimidin-2-yl)amino)-2-(2-(dimethylamino)-7-azaspiro[3.5]nonan-7-yl)-4-methoxyphenyl)acrylamide], the IC50 is 10 to 50 nM with HCC827(Δ19del); 10 to 100 nM at EGFR L858R; less than 10 nM at EGFR Δ19del/T790M/C797S; less than 10 nM on EGFR T790M/L858R; less than 10 nM with H1975(L858R/T790M).
Take `C=CC(=O)N(C)c1cc(Nc2ncc(Cl)c(Nc3ccccc3P(C)(C)=O)n2)ccc1N1CCC2(CC1)CC(N(C)C)C2` [Compound 6, N-(5-((5-chloro-4-((2-(dimethylphosphoryl)phenyl)amino)pyrimidin-2-yl)amino)-2-(2-(dimethylamino)-7-azaspiro[3.5]nonan-7-yl)phenyl)-N-methylacrylamide]: the IC50 at EGFR Δ19del/T790M/C797S was less than 10 nM. For the same molecule, on Ba/F3-Δ19del/T790M/C797S, the GI50 is 10 to 50 nM.
Regarding `C=CC(=O)Nc1cc(Nc2ncc(Cl)c(Nc3ccc4nccnc4c3P(C)(C)=O)n2)c(OC)cc1N1CCC2(CC1)CC(N(C)C)C2` [Compound 11, N-(5-((5-chloro-4-((5-(dimethylphosphoryl)quinoxalin-6-yl)amino)pyrimidin-2-yl)amino)-2-(2-(dimethylamino)-7-azaspiro[3.5]nonan-7-yl)-4-methoxyphenyl)acrylamide], the IC50 was 10 to 50 nM with HCC827(Δ19del), less than 10 nM at EGFR Δ19del/T790M/C797S and 10 to 50 nM in the assay on H1975(L858R/T790M). For the same molecule, the GI50 on Ba/F3-Δ19del/T790M/C797S fell in the range of 10 to 50 nM.
As to `C=CC(=O)Nc1cc(Nc2ncc(Cl)c(Nc3ccccc3P(C)(C)=O)n2)ccc1N1CCC2(CC1)CN(C)C2` [Compound 14, N-(5-((5-chloro-4-((2-(dimethylphosphoryl)phenyl)amino)pyrimidin-2-yl)amino)-2-(2-methyl-2,7-diazaspiro[3.5]nonan-7-yl)phenyl)acrylamide hydrochloric acid salt], the IC50 in the assay with HCC827(Δ19del) is 10 to 50 nM; on EGFR L858R, less than 10 nM; on EGFR Δ19del/T790M/C797S, less than 10 nM; on EGFR T790M/L858R it was less than 10 nM; in the assay on H1975(L858R/T790M), 10 to 50 nM.
In the case of `C=CC(=O)Nc1cc(Nc2ncc(C)c(Nc3ccccc3P(C)(C)=O)n2)ccc1N(C)CCN(C)C` [Compound 19, N-(2-((2-(dimethylamino)ethyl)(methyl)amino)-5-((4-((2-(dimethylphosphoryl)phenyl)amino)-5-methylpyrimidin-2-yl)amino)phenyl)acrylamide hydrochloric acid salt], the IC50 in the assay on HCC827(Δ19del) was less than 10 nM; on EGFR L858R, less than 10 nM; at EGFR Δ19del/T790M/C797S, less than 10 nM; on EGFR T790M/L858R, less than 10 nM; in the assay on H1975(L858R/T790M), 10 to 50 nM. Moreover, the GI50 at Ba/F3-Δ19del/T790M/C797S is 10 to 50 nM.
For the molecule `C=CC(=O)Nc1cc(Nc2ncc(C)c(Nc3ccccc3P(C)(C)=O)n2)ccc1N1CCC(N2CCN(C)CC2)CC1` [Compound 20, N-(5-((4-((2-(dimethylphosphoryl)phenyl)amino)-5-methylpyrimidin-2-yl)amino)-2-(4-(4-methylpiperazin-1-yl)piperidin-1-yl)phenyl)acrylamide], the IC50 in the assay on HCC827(Δ19del) is less than 10 nM; at EGFR L858R, less than 10 nM; at EGFR Δ19del/T790M/C797S it was less than 10 nM; on EGFR T790M/L858R it was less than 10 nM; in the assay with H1975(L858R/T790M) it was 10 to 50 nM. On Ba/F3-Δ19del/T790M/C797S, the GI50 fell in the range of 10 to 50 nM.
On to `C=CC(=O)Nc1cc(Nc2ncc(C)c(Nc3ccccc3P(C)(C)=O)n2)c(OC)cc1N(C)CCN(C)C` [Compound 21, N-(2-((2-(dimethylamino)ethyl)(methyl)amino)-5-((4-((2-(dimethylphosphoryl)phenyl)amino)-5-methylpyrimidin-2-yl)amino)-4-methoxyphenyl)acrylamide], for which the IC50 in the assay with HCC827(Δ19del) was less than 10 nM; at EGFR L858R, less than 10 nM; at EGFR Δ19del/T790M/C797S, 10 to 100 nM; at EGFR T790M/L858R, less than 10 nM; in the assay with H1975(L858R/T790M) it was 10 to 50 nM.
For the molecule `C=CC(=O)Nc1cc(Nc2ncc(F)c(Nc3ccccc3P(C)(C)=O)n2)ccc1N1CCC(N2CCN(C)CC2)CC1` [Compound 29, N-(5-((4-((2-(dimethylphosphoryl)phenyl)amino)-5-fluoropyrimidin-2-yl)amino)-2-(4-(4-methylpiperazin-1-yl)piperidin-1-yl)phenyl)acrylamide], the IC50 with HCC827(Δ19del) is 10 to 50 nM; on EGFR L858R, 10 to 100 nM; on EGFR Δ19del/T790M/C797S, less than 10 nM; on EGFR T790M/L858R, less than 10 nM. In addition, the GI50 on Ba/F3-Δ19del/T790M/C797S lay in the range of 10 to 50 nM.
Consider `C=CC(=O)Nc1cc(Nc2ncc(F)c(Nc3ccccc3P(C)(C)=O)n2)ccc1N(C)CCN(C)C` [Compound 32, N-(2-((2-(dimethylamino)ethyl)(methyl)amino)-5-(4-(2-(dimethylphosphoryl)phenylamino)-5-fluoropyrimidin-2-ylamino)phenyl)acrylamide], for which the IC50 was less than 10 nM in the assay with HCC827(Δ19del); less than 10 nM on EGFR L858R; 10 to 100 nM on EGFR Δ19del/T790M/C797S; less than 10 nM on EGFR T790M/L858R; 10 to 50 nM in the assay on H1975(L858R/T790M).
As for `C=CC(=O)Nc1cc(Nc2ncc(Cl)c(Nc3ccccc3P(C)(C)=O)n2)c(OC)cc1N1CCC2(CCC(N(C)C)CC2)CC1` [Compound 33, N-(5-(5-chloro-4-(2-(dimethylphosphoryl)phenylamino)pyrimidin-2-ylamino)-2-(9-(dimethylamino)-3-azaspiro[5.5]undecan-3-yl)-4-methoxyphenyl)acrylamide], the IC50 in the assay on HCC827(Δ19del) is 10 to 50 nM; on EGFR L858R it was 10 to 100 nM; at EGFR Δ19del/T790M/C797S it was less than 10 nM; on EGFR T790M/L858R it was less than 10 nM; in the assay with H1975(L858R/T790M), 10 to 50 nM.
For `C=CC(=O)Nc1cc(Nc2nccc(Nc3ccccc3P(C)(C)=O)n2)ccc1N(C)CCN(C)C` [Compound 37, N-(2-((2-(dimethylamino)ethyl)(methyl)amino)-5-((4-((2-(dimethylphosphoryl)phenyl)amino)pyrimidin-2-yl)amino)phenyl)acrylamide], the IC50 with HCC827(Δ19del) is less than 10 nM; on EGFR L858R, less than 10 nM; on EGFR Δ19del/T790M/C797S, 10 to 100 nM; on EGFR T790M/L858R, less than 10 nM; in the assay on H1975(L858R/T790M), 10 to 50 nM.
As for `C=CC(=O)Nc1cc(Nc2ncc(Cl)c(Nc3ccccc3P(C)(C)=O)n2)ccc1OC1CCN(C)CC1` [Compound 41, N-(5-((5-chloro-4-((2-(dimethylphosphoryl)phenyl)amino)pyrimidin-2-yl)amino)-2-((1-methylpiperidin-4-yl)oxy)phenyl)acrylamide], the IC50 was 10 to 50 nM with HCC827(Δ19del); 10 to 100 nM on EGFR L858R; less than 10 nM at EGFR Δ19del/T790M/C797S; less than 10 nM at EGFR T790M/L858R; 10 to 50 nM in the assay with H1975(L858R/T790M).
